The values that follow come from PMC10761119, “Phosphorylation-state dependent intraneuronal sorting of Aβ differentially impairs autophagy and the endo-lysosomal system” (Autophagy, 2023).

One data set deals with primary cortical neurons. Kind of data set: Western immunoblot of Aβ aggregation during incubation with neurons. The format is cell-based, mouse. Particulars: Aβ 500 nM, 4 h; NuPAGE and western immunoblot with 82E1; compared to npAβ or p-Ser26Aβ. The protocol:
Cells were collected by scraping and mechanically homogenized in hypotonic D buffer (10 mM Tris-HCl, pH 7.4, 10 mM NaCl, 0.1 mM EGTA, 25 mM glycerol 2-phosphate, 1 mM DTT) containing protease and phosphatase inhibitors by repeated suspension through a 23 G × 1” needle. Post-nuclear supernatant (PNS) was collected by centrifugation of the mechanically homogenized cellular material at 2,000 g for 5 min. The pellet was the nuclear material. […]
For different cellular fractions prepared as described earlier, the protein content was estimated using the standard Pierce™ BCA protein assay kit (ThermoFisher Scientific, 23225). […] Blots were developed either by enhanced chemiluminescence (ECL) or fluorescence imaging. […] Signals were detected with an ECL imager (Bio-Rad, Germany). For fluorescence detection, blots were imaged on a Li-COR imaging station (Li-COR Biosciences, Germany). […] Quantification of band signals was done using ImageJ – Gel processing module or Image Studio processing software (LiCOR Biosciences, Germany). All samples were analyzed in biological duplicates in two or three independent experiments as indicated in the respective figure legends. […]
(In general: Immunoblotting shows a protein as a band on a membrane.)

The conditions of data set [1]: cited from earlier work.
The subject of a further data set is SH-SY5Y cells. Kind of data set: Autophagic flux with tandem reporter GFP-LC3-RFP-LC3Δ. In kind it is cell-based, human. Particulars: Aβ 1 µM, 24 h; compared to control cells; n = 6, N = 3. As for the experimental part:
SH-SY5Y cells were transfected with either GFP-LC3-LC3Δ-RFP or mCherry-GFP-LC3B tandem constructs (0.5 μg/well +1 µl transfection reagent − 24 well plate) with Lipofectamine 2000 (Life Technologies, 11668019) in OptiMEM (Life Technologies, 11058021) in DMEM/F-12, FCS^− PS^− media. After 8 h, FCS^− PS^− media was changed to normal culture media, respectively. Transfection efficiency was around 50–60% in all analyzed coverslips.
SH-SY5Y cells seeded on D1, were treated with Aβ variants (1 μM) on D3 in DMEM/F-12 media without serum and antibiotics. Control treatment included treatment with equal volume of 10 mM NaOH solution used for preparing the Aβ stock solutions, in respective cell culture medium. […]
All images were processed and analyzed using Fiji ImageJ software. […] Distance from the plaque core (Figure 1B) was measured using the concentric circles plugin module. Fluorescence intensity of the green channel (Figure S3A-B), and the number of neurons positive for Aβ signals (Figure S3-D) were quantified using the processing module of Keyence software. […] Intensity of green and red channel for a particular ROI was calculated and ratios of the individual values were computed (Figure 6B and S7A). For computing the number of mCherry^+GFP^± vesicles or per cell (Figure 6D and S7B), cell outline was drawn manually and number of vesicles per cell (nucleus count – DAPI) was calculated. […]

With “amyloid-β phosphorylated at serine residue 8 [p-Ser8Aβ]”, the “SDS resistant aggregates formed during the incubation with neurons” value with primary cortical neurons is on record as “forms more SDS resistant aggregates”.
“amyloid-β phosphorylated at serine residue 26 [p-Ser26Aβ]”: the “Assemblies formed (effect of Ser26 phosphorylation)” value in data set [1] is on record as “soluble oligomeric assemblies, rather than fibrillar assemblies”.
In the case of “non-phosphorylated amyloid-β [npAβ, reference compound]”, the “RFP:GFP ratio (autophagic flux)” value in the data set with SH-SY5Y cells is “tended to increase”.
